Test results as given in PubChem BioAssay (NCI).
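Grown in 96-well plates, cells were treated for 48 hours with each compound at five concentrations. Insufficient inhibition: endpoint recorded as highest concentration tested. GI50 = concentration required for 50% inhibition of growth. TGI: concentration producing complete growth inhibition.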

Experiments:
Test in all cases: growth of human tumour cells (NCI), 48 h
786-0 renal = system: 786-0 renal
A549 NSCLC = system: A549 NSCLC
ACHN renal = system: ACHN renal
CCRF-CEM leukemia = system: CCRF-CEM leukemia
DU-145 prostate = system: DU-145 prostate
EKVX NSCLC = system: EKVX NSCLC
HCC-2998 colon = system: HCC-2998 colon
HCT-116 colon = system: HCT-116 colon
HCT-15 colon = system: HCT-15 colon
HOP-62 NSCLC = system: HOP-62 NSCLC
HS 578T breast = system: HS 578T breast
HT29 colon = system: HT29 colon
IGROV1 ovarian = system: IGROV1 ovarian
K-562 leukemia = system: K-562 leukemia
KM12 colon = system: KM12 colon
LOX IMVI melanoma = system: LOX IMVI melanoma
M14 melanoma = system: M14 melanoma
MCF7 breast = system: MCF7 breast
MDA-N = system: MDA-N
MOLT-4 leukemia = system: MOLT-4 leukemia
NCI-H23 lung = system: NCI-H23 lung
NCI-H460 lung = system: NCI-H460 lung
NCI-H522 lung = system: NCI-H522 lung
NCI/ADR-RES ovarian = system: NCI/ADR-RES ovarian
OVCAR-3 ovarian = system: OVCAR-3 ovarian
OVCAR-5 ovarian = system: OVCAR-5 ovarian
OVCAR-8 ovarian = system: OVCAR-8 ovarian
PC-3 prostate = system: PC-3 prostate
RPMI-8226 leukemia = system: RPMI-8226 leukemia
SF-268 CNS = system: SF-268 CNS
SF-295 CNS = system: SF-295 CNS
SF-539 CNS = system: SF-539 CNS
SK-MEL-2 melanoma = system: SK-MEL-2 melanoma
SK-MEL-28 melanoma = system: SK-MEL-28 melanoma
SK-MEL-5 melanoma = system: SK-MEL-5 melanoma
SN12C renal = system: SN12C renal
SNB-19 CNS = system: SNB-19 CNS
SR leukemia = system: SR leukemia
SW-620 colon = system: SW-620 colon
T-47D breast = system: T-47D breast
TK-10 renal = system: TK-10 renal
UACC-257 melanoma = system: UACC-257 melanoma
UACC-62 melanoma = system: UACC-62 melanoma
UO-31 renal = system: UO-31 renal
A498 renal = system: A498 renal
BT-549 breast = system: BT-549 breast
CAKI-1 renal = system: CAKI-1 renal
COLO 205 colon = system: COLO 205 colon
HOP-92 NSCLC = system: HOP-92 NSCLC
MALME-3M melanoma = system: MALME-3M melanoma
MDA-MB-231 breast = system: MDA-MB-231 breast
MDA-MB-435 = system: MDA-MB-435
NCI-H226 lung = system: NCI-H226 lung
OVCAR-4 ovarian = system: OVCAR-4 ovarian
RXF 393 renal = system: RXF 393 renal
SNB-75 CNS = system: SNB-75 CNS
U251 CNS = system: U251 CNS

## COc1cc(OC)c(C2c3cc4c(cc3OC(N3CCCC3)C2C)OCO4)c(OC)c1 (stereo unspecified)
786-0 renal
  TGI: 53.8 µM
A549 NSCLC
  TGI: 87.9 µM
ACHN renal
  TGI: 30.7 µM
CCRF-CEM leukemia
  TGI: 45.5 µM
DU-145 prostate
  TGI: 59.2 µM
EKVX NSCLC
  TGI: > 100 µM
HCC-2998 colon
  TGI: 21.9 µM
HCT-116 colon
  TGI: 16.7 µM
HCT-15 colon
  TGI: 52.3 µM
HOP-62 NSCLC
  TGI: 40.1 µM
HS 578T breast
  TGI: 18.1 µM
HT29 colon
  TGI: 28.7 µM
IGROV1 ovarian
  TGI: 52.8 µM
K-562 leukemia
  TGI: 58.2 µM
KM12 colon
  TGI: 30.2 µM
LOX IMVI melanoma
  TGI: 28.4 µM
M14 melanoma
  TGI: 28.6 µM
MCF7 breast
  TGI: 48.1 µM
MDA-N
  TGI: 35.4 µM
MOLT-4 leukemia
  TGI: 31.6 µM
NCI-H23 lung
  TGI: 59.1 µM
NCI-H460 lung
  TGI: 32.5 µM
NCI-H522 lung
  TGI: 48.7 µM
NCI/ADR-RES ovarian
  TGI: 67 µM
OVCAR-3 ovarian
  TGI: 20.5 µM
OVCAR-5 ovarian
  TGI: 69 µM
OVCAR-8 ovarian
  TGI: > 100 µM
PC-3 prostate
  TGI: 49 µM
RPMI-8226 leukemia
  TGI: 43.1 µM
SF-268 CNS
  TGI: 40.3 µM
SF-295 CNS
  TGI: 36.1 µM
SF-539 CNS
  TGI: 25.9 µM
SK-MEL-2 melanoma
  TGI: 57.7 µM
SK-MEL-28 melanoma
  TGI: 46.2 µM
SK-MEL-5 melanoma
  TGI: 29.4 µM
SN12C renal
  TGI: 47.9 µM
SNB-19 CNS
  TGI: 51.1 µM
SR leukemia
  TGI: 29.6 µM
SW-620 colon
  TGI: > 100 µM
T-47D breast
  TGI: > 100 µM
TK-10 renal
  TGI: > 100 µM
UACC-257 melanoma
  TGI: 73 µM
UACC-62 melanoma
  TGI: 69.6 µM
UO-31 renal
  TGI: 25.8 µM

## O=c1c2ccccc2c(=O)c2c1[nH]c1c(-c3ccccc3)c(-c3ccccc3)c(=O)c12
786-0 renal
  GI50: 3.96 µM
  TGI: 14.9 µM
A498 renal
  GI50: 3.12 µM
  TGI: 7.69 µM
A549 NSCLC
  GI50: 2.07 µM
  TGI: 6.6 µM
ACHN renal
  GI50: 1.93 µM
  TGI: 3.62 µM
BT-549 breast
  GI50: 2.09 µM
  TGI: 4.69 µM
CAKI-1 renal
  GI50: 1.93 µM
  TGI: 4.99 µM
CCRF-CEM leukemia
  GI50: 1.46 µM
  TGI: 11 µM
COLO 205 colon
  GI50: 3.94 µM
  TGI: 13.1 µM
DU-145 prostate
  GI50: 2.71 µM
  TGI: 9.44 µM
EKVX NSCLC
  GI50: 3.2 µM
  TGI: 11.8 µM
HCC-2998 colon
  GI50: 2.09 µM
  TGI: 5.05 µM
HCT-116 colon
  GI50: 2.31 µM
  TGI: 4.87 µM
HCT-15 colon
  GI50: 1.31 µM
  TGI: 4.22 µM
HOP-62 NSCLC
  GI50: 3.28 µM
  TGI: 9.15 µM
HOP-92 NSCLC
  GI50: 3.23 µM
  TGI: 12.7 µM
HS 578T breast
  GI50: 5.67 µM
  TGI: 31.1 µM
HT29 colon
  GI50: 4.29 µM
  TGI: > 100 µM
IGROV1 ovarian
  GI50: 3.39 µM
  TGI: 20.4 µM
K-562 leukemia
  GI50: 3.68 µM
  TGI: > 100 µM
KM12 colon
  GI50: 2.3 µM
  TGI: 6.34 µM
LOX IMVI melanoma
  GI50: 2.55 µM
  TGI: 6.2 µM
M14 melanoma
  GI50: 2.41 µM
  TGI: 5.63 µM
MALME-3M melanoma
  GI50: 2.24 µM
  TGI: 8.19 µM
MCF7 breast
  GI50: 2.48 µM
  TGI: > 100 µM
MDA-MB-231 breast
  GI50: 4.97 µM
  TGI: 43 µM
MDA-MB-435
  GI50: 3.24 µM
  TGI: 9.42 µM
MOLT-4 leukemia
  GI50: 1.92 µM
  TGI: 13.3 µM
NCI-H226 lung
  GI50: 3.56 µM
  TGI: 44.5 µM
NCI-H23 lung
  GI50: 3.72 µM
  TGI: 14.4 µM
NCI-H460 lung
  GI50: 2.82 µM
  TGI: 12 µM
NCI-H522 lung
  GI50: 2.19 µM
  TGI: 5.73 µM
NCI/ADR-RES ovarian
  GI50: 3.76 µM
  TGI: 21.7 µM
OVCAR-3 ovarian
  GI50: 1.92 µM
  TGI: 4.48 µM
OVCAR-4 ovarian
  GI50: 6.43 µM
  TGI: > 100 µM
OVCAR-5 ovarian
  GI50: 4.27 µM
  TGI: 14.7 µM
OVCAR-8 ovarian
  GI50: 2.79 µM
  TGI: 9.33 µM
PC-3 prostate
  GI50: 2.67 µM
  TGI: 11.1 µM
RPMI-8226 leukemia
  GI50: 2.07 µM
  TGI: 12 µM
RXF 393 renal
  GI50: 1.54 µM
  TGI: 5.02 µM
SF-268 CNS
  GI50: 4.48 µM
  TGI: > 100 µM
SF-295 CNS
  GI50: 2.34 µM
  TGI: 6.24 µM
SF-539 CNS
  GI50: 1.85 µM
  TGI: 3.74 µM
SK-MEL-2 melanoma
  GI50: 2.84 µM
  TGI: 15.6 µM
SK-MEL-28 melanoma
  GI50: 3.51 µM
  TGI: 14.3 µM
SK-MEL-5 melanoma
  GI50: 2.05 µM
  TGI: 4.03 µM
SN12C renal
  GI50: 3.57 µM
  TGI: 16 µM
SNB-19 CNS
  GI50: 3.26 µM
  TGI: 11.8 µM
SNB-75 CNS
  GI50: 15.1 µM
  TGI: 52.1 µM
SR leukemia
  GI50: 2.15 µM
  TGI: 13.5 µM
SW-620 colon
  GI50: 3.85 µM
  TGI: 14.1 µM
T-47D breast
  GI50: 1.8 µM
  TGI: 7.76 µM
TK-10 renal
  GI50: 4.84 µM
  TGI: 52.3 µM
U251 CNS
  GI50: 2.27 µM
  TGI: 4.9 µM
UACC-257 melanoma
  GI50: 2.46 µM
  TGI: 8.22 µM
UACC-62 melanoma
  GI50: 1.72 µM
  TGI: 3.38 µM
UO-31 renal
  GI50: 1.75 µM
  TGI: 5.55 µM
